Assays:
[1] = test system: fleas (Ctenocephalides felis); assay: Efficacy of soft chews against induced flea infestations on dogs (Example 2); type: in vivo; details: for % Reduction Fleas: soft chew of Table 6, once on Day 0, dogs; for Percent reduction (efficacy) against fleas: Table 6 soft chew, treated once on Day 0, dogs
Description: (§1) Sixteen beagles were studied to determine the effectiveness of a soft chewable veterinary composition comprising Compound A against induced infestations of Dermacentor variabilis and Ctenocephalides felis.
(§2) Four Treatment Groups containing four dogs each were formed. Dogs in Group 1 were untreated. […] All dogs were treated once on Day 0.
(§3) All dogs were infested with approximately 100 C. felis on Days −1, 8, 15, 22, 29, 35, 43, 57 and 71. All dogs were also infested with approximately 50 D. variabilis on Days −1, 7, 14, 21, 28, 34 and 42. Both ticks and fleas were counted upon removal on Days 2, 9, 16, 23, 30, 36 and 44. Fleas were counted upon removal for all Treatment Groups on Days 58 and 72.

[2] = test system: Amblyomma americanum (lone star tick); assay: Efficacy against induced Amblyomma americanum infestations on dogs (Example 4); type: in vivo; details: at least approx. 2.5 mg/kg once on Day 0
Description: Two treatment groups were formed, each containing eight dogs each. Dogs in Group 1 were untreated. Dogs in Group 2 were treated once on Day 0 with soft chewable compositions containing Compound A at a concentration to deliver a dose of at least approximately 2.5 mg/kg.
Ticks were counted on Days 2, 9, 16, 23, 30 and 38. The percent efficacy of the treated group versus the untreated control group 48 hours after infestation exceeded 91% at Days 2, 9, 16 and 23, with percent efficacy values of 99.2, 98.7, 99.4 and 91.7, respectively (p-values≤0.001). At Day 38 the percent efficacy was measured at 89.7%.

[3] = test system: ticks (Dermacentor variabilis); assay: Efficacy of soft chews against induced tick infestations on dogs (Example 2); type: in vivo; details: for % Reduction Ticks: soft chew of Table 6, once on Day 0, dogs; for Percent reduction against ticks: Table 6 soft chew, treated once on Day 0, dogs
Description: as §1, §2, §3

[4] = test system: fleas (Ctenocephalides felis); assay: Efficacy and speed of kill against fleas on dogs (Example 3); type: in vivo
Description: Three Treatment Groups were formed. Dogs in Group 1 were untreated. […] Groups 1 and 2 contained 12 dogs each and Group 3 contained 4 dogs. All dogs were treated once on Day 0.
All dogs were infested with approximately 75 C. felis on Days 0 and 7. The dogs in Group 3 and dogs in pre-allocated subgroups in Groups 1 and 2 were also infested with approximately 75 C. felis on Days 14, 21 and 28. Fleas were counted upon removal from selected subjects at 30 minutes, 4 hours, and 12 hours after treatment or infestation on Days 0 and 7. On Days 14, 21 and 28, fleas were counted upon removal from selected subjects at 8 and 12 hours after infestation. […] Following infestation at later timepoints, the composition started working within 30 minutes, and by 12 hours after infestation on Days 7, 14 and 21, efficacy of >98% was achieved.

Ixodes holocyclus = assay: Efficacy against induced Ixodes holocyclus infestations on dogs (Example 5)
[5] = Plasma concentration of Compound A in dogs after oral administration (FIG. 5); type: in vivo; details: soft chews at 20 mg/kg and 40 mg/kg compared with polyethylene glycol/alcohol solution at 25 mg/kg
From the text: Although the extremely high bioavailability of the chewable compositions is in part due to the physicochemical properties of the isoxazoline active agents, the high levels observed from the chewable compositions of the invention are made possible by the presence and combination of the non-active excipients, which ensure complete and predictable dissolution of the composition and maintain the active agents in solution in the digestive tract of the animal. […] This plot compares the plasma concentration of an isoxazoline active agent (Compound A) delivered from soft chewable compositions of the invention designed to deliver 20 mg/kg and 40 mg/kg of body weight with administration of a polyethylene glycol/alcohol solution of the active agent at 25 mg/kg body weight. […] This is particularly surprising since the chewable compositions are in the form of a solid that must disintegrate and completely release and solubilize the active agent for efficient absorption during digestion. One would expect the solution to provide higher bioavailability because the active agent is completely dissolved when administered.

[6] = Group 2, approximately 1.5 mg/kg, Day 2
[7] = Group 2, approximately 1.5 mg/kg, Day 9
[8] = Group 2, approximately 1.5 mg/kg, Day 16
[9] = Group 2, approximately 1.5 mg/kg, Day 23
[10] = Group 2, approximately 1.5 mg/kg, Day 30
[11] = Group 2, approximately 1.5 mg/kg, Day 36
[12] = Group 2, approximately 1.5 mg/kg, Day 44
[13] = Group 3, approximately 2.5 mg/kg, Day 2
[14] = Group 3, approximately 2.5 mg/kg, Day 9
[15] = Group 3, approximately 2.5 mg/kg, Day 16
[16] = Group 3, approximately 2.5 mg/kg, Day 23
[17] = Group 3, approximately 2.5 mg/kg, Day 30
[18] = Group 3, approximately 2.5 mg/kg, Day 36
[19] = Group 3, approximately 2.5 mg/kg, Day 44
[20] = Group 4, approximately 3.5 mg/kg, Day 2
[21] = Group 4, approximately 3.5 mg/kg, Day 9
[22] = Group 4, approximately 3.5 mg/kg, Day 16
[23] = Group 4, approximately 3.5 mg/kg, Day 23
[24] = Group 4, approximately 3.5 mg/kg, Day 30
[25] = Group 4, approximately 3.5 mg/kg, Day 36
[26] = Group 4, approximately 3.5 mg/kg, Day 44
[27] = through and including Day 30, all treatment groups (approx. 1.5, 2.5 or 3.5 mg/kg)

Structure (SMILES): O=C(CNC(=O)c1ccc(C2=NOC(c3cc(Cl)cc(C(F)(F)F)c3)(C(F)(F)F)C2)c2ccccc12)NCC(F)(F)F (centres unmarked) [Compound A, 4-[5-[3-chloro-5-(trifluoromethyl)phenyl]-4,5-dihydro-5-(trifluoromethyl)-3-isoxazolyl]-N-[2-oxo-2-[(2,2,2-trifluoroethyl)amino]ethyl]-1-naphthalenecarboxamide]
- % Reduction Fleas [1, 6]: 100.0%
- % Reduction Fleas [1, 7]: 100.0%
- % Reduction Fleas [1, 8]: 100.0%
- % Reduction Fleas [1, 9]: 100.0%
- % Reduction Fleas [1, 10]: 100.0%
- % Reduction Fleas [1, 11]: 99.2%
- % Reduction Fleas [1, 12]: 97.8%
- % Reduction Fleas ([1]; Group 2, approximately 1.5 mg/kg, Day 58): 89.4%
- % Reduction Fleas ([1]; Group 2, approximately 1.5 mg/kg, Day 72): 79.6%
- % Reduction Fleas [1, 13]: 100.0%
- % Reduction Fleas [1, 14]: 100.0%
- % Reduction Fleas [1, 15]: 100.0%
- % Reduction Fleas [1, 16]: 100.0%
- % Reduction Fleas [1, 17]: 100.0%
- % Reduction Fleas [1, 18]: 100.0%
- % Reduction Fleas [1, 19]: 99.3%
- % Reduction Fleas ([1]; Group 3, approximately 2.5 mg/kg, Day 58): 96.7%
- % Reduction Fleas ([1]; Group 3, approximately 2.5 mg/kg, Day 72): 94.4%
- % Reduction Fleas [1, 20]: 100.0%
- % Reduction Fleas [1, 21]: 100.0%
- % Reduction Fleas [1, 22]: 100.0%
- % Reduction Fleas [1, 23]: 100.0%
- % Reduction Fleas [1, 24]: 100.0%
- % Reduction Fleas [1, 25]: 99.6%
- % Reduction Fleas [1, 26]: 98.3%
- % Reduction Fleas ([1]; Group 4, approximately 3.5 mg/kg, Day 58): 95.2%
- % Reduction Fleas ([1]; Group 4, approximately 3.5 mg/kg, Day 72): 80.6%
- Percent reduction (efficacy) against fleas ([1]; through Day 44, all groups (approx. 1.5, 2.5 or 3.5 mg/kg)): above 95%
- Percent reduction (efficacy) against fleas ([1]; through Day 58, Groups 3 and 4): above 95%
- Percent reduction (efficacy) against fleas [1, 27]: 100%
- Percent efficacy versus untreated control group ([2]; 48 hours after infestation, at Days 2, 9, 16 and 23, Table 10 soft chew): exceeded 91%
- Percent efficacy versus untreated control group ([2]; Day 2, 48 hours after infestation, Table 10 soft chew): 99.2%
- Percent efficacy versus untreated control group ([2]; Day 9, 48 hours after infestation, Table 10 soft chew): 98.7%
- Percent efficacy versus untreated control group ([2]; Day 16, 48 hours after infestation, Table 10 soft chew): 99.4%
- Percent efficacy versus untreated control group ([2]; Day 23, 48 hours after infestation, Table 10 soft chew): 91.7%
- Percent efficacy versus untreated control group ([2]; Day 38, Table 10 soft chew): 89.7%
- Duration of excellent control of Amblyomma americanum ([2]; Table 10 soft chew): > 30 days
- % Reduction Ticks [3, 6]: 100.0%
- % Reduction Ticks [3, 7]: 99.2%
- % Reduction Ticks [3, 8]: 100.0%
- % Reduction Ticks [3, 9]: 92.1%
- % Reduction Ticks [3, 10]: 99.5%
- % Reduction Ticks [3, 11]: 82.4%
- % Reduction Ticks [3, 12]: 68.3%
- % Reduction Ticks [3, 13]: 100.0%
- % Reduction Ticks [3, 14]: 100.0%
- % Reduction Ticks [3, 15]: 99.1%
- % Reduction Ticks [3, 16]: 97.2%
- % Reduction Ticks [3, 17]: 94.3%
- % Reduction Ticks [3, 18]: 96.9%
- % Reduction Ticks [3, 19]: 88.1%
- % Reduction Ticks [3, 20]: 100.0%
- % Reduction Ticks [3, 21]: 100.0%
- % Reduction Ticks [3, 22]: 99.5%
- % Reduction Ticks [3, 23]: 100.0%
- % Reduction Ticks [3, 24]: 98.1%
- % Reduction Ticks [3, 25]: 91.9%
- % Reduction Ticks [3, 26]: 84.7%
- Percent reduction against ticks ([3]; through Day 36, Groups 3 and 4): > 90%
- Percent reduction against ticks [3, 27]: > 90%
- Flea efficacy ([4]; 12 hours after administration on Day 0, soft chews of Tables 7 and 8, approx. 2.5 mg/kg): 100%
- Time until compositions started working against fleas ([4]; after treatment on Day 0, approx. 2.5 mg/kg): ≤ 30 min
- Flea efficacy ([4]; by 12 hours after infestation on Days 7, 14 and 21, soft chews of Tables 7 and 8, approx. 2.5 mg/kg once on Day 0): > 98%
- Time until composition started working against fleas ([4]; following infestation at later timepoints, approx. 2.5 mg/kg once on Day 0): ≤ 30 min
- Percent efficacy (Ixodes holocyclus; 24 hours post infestation on Days 1, 8, 15 and 22, Table 10 soft chew, at least 2.5 mg/kg once on Day 0): at least 95.8%
- Percent efficacy (Ixodes holocyclus; 48 hours post infestation, all time points measured, once on Day 0, at least 2.5 mg/kg Compound A (Table 10), combination plus at least 0.5 mg/kg milbemycin oxime (Table 13)): at least 98.7%
- Percent efficacy (Ixodes holocyclus; 72 hours post infestation, all time points measured, once on Day 0, at least 2.5 mg/kg Compound A (Table 10), combination plus at least 0.5 mg/kg milbemycin oxime (Table 13)): at least 99.2%
- Plasma concentration of Compound A [5]: significantly higher plasma levels
